In patent publication US9770423B2, “Modulation sAPP, sAAPα and BDNF levels in individuals diagnosed with FXS and ASD” (Indiana University Research and Technology Corp., priority 2012, dated 2017):

Test system: youth with autistic disorder (idiopathic ASD)
Test: 12-week single-blind placebo lead-in trial of acamprosate in youth with autistic disorder: behavioral outcome measures
Format: in vivo, human
Procedure: One study was a 12-week single-blind, placebo-controlled trial of acamprosate in 12 youths with autistic disorder was conducted. The primary outcome measured was the Clinical Global Impression Improvement (CGI-I) scale with several additional behavioral secondary outcome measures employed. In this study, secreted amyloid precursor protein (sAPP) was measured pre- and post acamprosate treatment as blood biomarker assay Result: Twelve subjects (mean age=10.4 yrs.) entered the study and nine subjects completed a two week placebo lead-in and entered active treatment (mean final dose=1,073 mg/day). Six of nine (67%) subjects receiving acamprosate were judged treatment responders with a CGI-I score of 1 “very much improved” or 2 “much improved”. […] Among secondary outcome measures analyzed, significant acamprosate-associated improvement was noted on measures of social behavior and hyperactivity. Acamprosate use was also associated with reductions in sAPP levels.
The first project enrolled 12 youth aged 5 to 17 years with fragile X syndrome and comorbid ASD in a 10-week open-label trial of acamprosate. The second project enrolled 12 youth aged 5 to 17 years diagnosed with idiopathic ASD in a 12-week single-blind placebo lead-in study of acamprosate. In both projects, concomitant dosing of psychotropic drugs remained stable throughout study. In each project, pre- and post-acamprosate treatment plasma levels of sAPP total and sAPPα were obtained. All APP assay samples were collected, chilled, and walked within 2 hours of blood draw to the lab for analysis. Plasma sAPP total and sAPPα were determined in […] using the ELISA kit obtained from Immuno Biological Laboratories (IBL, Gumma, Japan). The ELISA kit is validated to measure levels of sAPPα in human samples and able to detect as low as 0.09 ng/ml of sAPPα in a typical sample, with only 0.3% cross-reactivity to sAPPβ. Levels of sAPP total and sAPPα in plasma were reported in nanograms per milliliter (ng/mL). Statistical analysis of pre- and post-acamprosate sAPP total and sAPPα levels were conducted using paired T-tests. Finally an exploratory post-hoc analysis of potential correlation between percent change in sAPP total or sAPPα and percent change in scores on the Aberrant Behavior Checklist Social Withdrawal/Lethargy subscale (ABC-SW) was conducted. The ABC-SW measures social impairment which is a core symptom domain of ASD. Post-hoc analysis was done with Spearman correlation calculations. All data was analyzed in IBM SPSS Version 20.
A 12-week single-blind, placebo-controlled trial of the effect of acamprosate in the treatment of 12 youths with autistic disorder aged 5 to 17 years was carried out. In order to pilot test use of acamprosate in youth with autism targeting core social impairment, was conducted. All subjects and their family members were blinded to treatment status. All subjects participated in a 2 week placebo-lead-in phase prior to 10 weeks of treatment with acamprosate. For this project, enteric coated commercially available 333 mg acamprosate pills were over-encapsulated and identical matching placebo manufactured for the project. Placebo-responders, defined by a Clinical Global Impressions Improvement scale (CGI-I) score of 1 “very much improved” or 2 “much improved” (ratings anchored to core social deficits) at week 2 were asked to exit the study. During active treatment with acamprosate, dosing was increased in 333 mg increments per week over the first six weeks of active treatment to a maximum dose of 1,332 mg/day (weight<5 60 kg) or 1,998 mg/day (weight>60 kg). During the final four weeks of active drug treatment, subjects were maintained on a stable highest tolerated (optimal) dose. The primary outcome measure was the clinician-rated CGI-I anchored to symptoms of social impairment. […]

CC(=O)NCCCS(=O)(=O)O.[Ca] [acamprosate, Calcium Acetylhomotaurine]
CGI-S at endpoint (autistic disorder, baseline 4.22+/-0.4, p=0.013): 3.7+/−0.5
ABC Lethargy/Social Withdrawal subscale (ABC-SW) at endpoint (autistic disorder, baseline 14.1+/-8.5, p=0.019): 10.0+/−8.4
ABC Hyperactivity subscale at endpoint (autistic disorder, baseline 25.4+/-12.6, p=0.005): 16.6+/−12.4
ADHD-RS at endpoint (autistic disorder, baseline 29.5+/-10.4, p=0.002): 20.75+/−9.7
SRS total raw score at endpoint (autistic disorder, baseline 107+/-28, p=0.002): 91.4+/−30
mean CGI-I at last visit (nine subjects, last observation carried forward): 2
treatment responders, number of subjects (of 9 youth with idiopathic ASD): 6
treatment responders (CGI-I score of 1 or 2) (six of nine subjects receiving acamprosate, autistic disorder, mean final dose 1,073 mg/day): 67%
